Assay results from patent publication US9273057B2 (Bristol-Myers Squibb Company, priority 2012, dated 2016).

Target: CK2A1 (CK2α/β) (Homo sapiens, UniProt P68400)
Experiment: CK2 kinase assay, CK2A1 (CK2α/β)
Assay type: biochemical
Details: Table A; read-out: CK2A1 (CK2α/β) (IC50)

CK2A1 (CK2α/β), sequence (P68400 whole entry, species assumed): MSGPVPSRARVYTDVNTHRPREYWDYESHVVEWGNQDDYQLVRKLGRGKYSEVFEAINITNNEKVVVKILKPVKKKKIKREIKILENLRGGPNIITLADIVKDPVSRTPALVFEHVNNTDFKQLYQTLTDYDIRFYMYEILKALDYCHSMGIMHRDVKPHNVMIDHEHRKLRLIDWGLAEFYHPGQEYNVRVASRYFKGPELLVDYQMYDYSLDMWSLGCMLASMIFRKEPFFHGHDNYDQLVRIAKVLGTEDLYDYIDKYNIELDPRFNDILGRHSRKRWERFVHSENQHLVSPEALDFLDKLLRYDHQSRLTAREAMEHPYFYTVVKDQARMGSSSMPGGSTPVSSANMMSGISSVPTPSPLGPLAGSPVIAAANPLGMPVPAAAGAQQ
CK2A1 (CK2α/β), sequence (P67870 whole entry partner, species assumed): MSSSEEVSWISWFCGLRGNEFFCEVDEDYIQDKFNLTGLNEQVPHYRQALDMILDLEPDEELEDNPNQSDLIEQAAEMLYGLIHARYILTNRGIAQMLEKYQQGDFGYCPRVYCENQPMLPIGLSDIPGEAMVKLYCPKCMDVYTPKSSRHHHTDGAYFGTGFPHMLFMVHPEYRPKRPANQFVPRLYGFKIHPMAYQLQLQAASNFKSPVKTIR

| Structure (SMILES) | IC50 [nM] |
| --- | --- |
| COC(=O)N[C@@H]1CCCN(c2cc(C#N)cc(Nc3nc(NC4CC4)c4ncc(C#N)n4n3)c2Cl)C1 [Example 41, methyl ((3R)-1-(2-chloro-5-cyano-3-((7-cyano-4-(cyclopropylamino)imidazo [2,1-f][1,2,4]triazin-2-yl)amino)phenyl)-3-piperidinyl)carbamate] | 0.94 |
| N#Cc1cc(Nc2nc(NC3CC3)c3ncc(C#N)n3n2)c(Cl)c(N2CCC[C@@H](NC3COC3)C2)c1 [Example 42, 2-((2-chloro-5-cyano-3-((3R)-3-(3-oxetanylamino)-1-piperidinyl)phenyl)amino)-4-(cyclopropylamino)imidazo [2,1-f][1,2,4]triazine-7-carbonitrile] | 2.58 |
| N#Cc1cc(Nc2nc(NC3CC3)c3ncc(C#N)n3n2)c(Cl)c(N2CC[C@@H](NC3COC3)C2)c1 [Example 44, 2-((2-chloro-5-cyano-3-((3R)-3-(3-oxetanylamino)-1-pyrrolidinyl)phenyl)amino)-4-(cyclopropylamino)imidazo [2,1-f][1,2,4]triazine-7-carbonitrile] | 0.33 |
| N#Cc1cc(Nc2nc(NC3CC3)c3ncc(C#N)n3n2)c(Cl)c(N2CC[C@@H](N)C2)c1 [Example 46, (R)-2-(3-(3-aminopyrrrolidin-1-yl)-2-chloro-5-cyanophenylamino)-4-(cyclopropylamino)imidazo [1,2-f][1,2,4]triazine-7-carbonitrile] | 1.31 |
| CN(CCN)c1cc(C#N)cc(Nc2nc(NC3CC3)c3ncc(C#N)n3n2)c1Cl [Example 50] | 0.63 |

The remaining molecules from weak to strong by IC50, led by results:

| IC50 [nM] | Structure (SMILES) |
| --- | --- |
| 2.49 | N#Cc1cc(Nc2nc(NC3CC3)c3ncc(C#N)n3n2)c(Cl)c(N2CCC[C@@H](N)C2)c1 [Example 40, (R)-2-(3-(3-aminopiperidin-1-yl)-2-chloro-5-cyanophenylamino)-4-(cyclopropylamino)imidazo [1,2-f][1,2,4]triazine-7-carbonitrile] |
| 2.47 | CN(CCNC1COC1)c1cc(C#N)cc(Nc2nc(NC3CC3)c3ncc(C#N)n3n2)c1Cl [Example 51, 2-((2-chloro-5-cyano-3-(methyl(2-(3-oxetanylamino)ethyl)amino)phenyl)amino)-4-(cyclopropylamino)imidazo [2,1-f][1,2,4]triazine-7-carbonitrile] |
| 1.82 | CC(C)(O)CN[C@@H]1CCCN(c2cc(C#N)cc(Nc3nc(NC4CC4)c4ncc(C#N)n4n3)c2Cl)C1 [Example 43, 2-((2-chloro-5-cyano-3-((3R)-3-((2-hydroxy-2-methylpropyl)amino)-1-piperidinyl)phenyl)amino)-4-(cyclopropylamino)imidazo [2,1-f][1,2,4]triazine-7-carbonitrile] |
| 1.73 | CC1(O)CN([C@@H]2CCN(c3cc(C#N)cc(Nc4nc(NC5CC5)c5ncc(C#N)n5n4)c3Cl)C2)C1 [Example 47, (R)-2-(2-chloro-5-cyano-3-(3-(3-hydroxy-3-methylazetidin-1-yl)pyrrolidin-1-yl)phenylamino)-4-(cyclopropylamino)imidazo [1,2-f][1,2,4]triazine-7-carbonitrile] |
| 0.96 | CC1(O)CN([C@@H]2CCCN(c3cc(C#N)cc(Nc4nc(NC5CC5)c5ncc(C#N)n5n4)c3Cl)C2)C1 [Example 45, 2-((2-chloro-5-cyano-3-((3R)-3-(3-hydroxy-3-methyl-1-azetidinyl)-1-piperidinyl)phenyl)amino)-4-(cyclopropylamino)imidazo [2,1-f][1,2,4]triazine-7-carbonitrile] |
| 0.71 | N#Cc1cc(Nc2nc(NC3CC3)c3ncc(C#N)n3n2)c(Cl)c(N2CCC3(CC2)COC3)c1 [Example 48, 2-((2-chloro-5-cyano-3-(2-oxa-7-azaspiro[3.5]non-7-yl)phenyl)amino)-4-(cyclopropylamino)imidazo [2,1-f][1,2,4]triazine-7-carbonitrile] |
| 0.66 | N#Cc1cc(Nc2nc(NC3CC3)c3ncc(C#N)n3n2)c(Cl)c(N2CCN(CC(F)F)CC2)c1 [Example 52, 2-((2-chloro-5-cyano-3-(4-(2,2-difluoroethyl)-1-piperazinyl)phenyl)amino)-4-(cyclopropylamino)imidazo[2,1-f][1,2,4]triazine-7-carbonitrile] |
